The values that follow are results of earlier work, collected in paper PMC10289903 (Investigational New Drugs, 2023).

SMILES strings stand for the structures.

The series concerns platinum-resistant or platinum-refractory recurrent ovarian cancer. The note with it: placebo plus gemcitabine arm; 95% CI 1.8–3.8; cited from earlier work.

In the case of `Nc1ccn([C@@H]2O[C@H](CO)[C@@H](O)C2(F)F)c(=O)n1` [gemcitabine, reference compound], the PFS was 3.0 months.
